Drawing on patent publication US20120004257A1, “NOVEL COMPOUNDS” (priority 2010, published 2012), this text covers IC50 for one compound.

Where a name gives a salt, the structure may show the parent alone.

Type in all cases: biochemical
Test [1] concerns noradrenaline (NA) reuptake in synaptosomes. Description: NA reuptake inhibition in synaptosomes. As to conditions: 3H-NA, read-out: NA-uptake IC50. The text has this:
(§1) Compounds of the invention may be tested for their ability to inhibit reuptake of the monoamines dopamine, noradrenaline and serotonin in synaptosomes e.g. such as described in WO 97/30997 (NeuroSearch A/S) or WO 97/16451 (NeuroSearch A/S). The compounds of the invention may also be tested for their antinociceptive activity e.g. such as described below: Background: formalin injection into the rat hindpaw initiates […] spontaneous nociceptive behaviours consisting of either flinching, and licking and/or biting of the injected paw. The first phase occurs as a direct chemical stimulation of nociceptors, and is followed by a period of relative quiescence called interphase that can be attributed to activation of noxious inhibitory control pathways; primarily 5-HT and NA pathways originating from brainstem nuclei. The second phase occurs as a result of increased primary afferent afferent drive with subsequent sensitization of nociceptive spinal neurones (Coderre et al., 1993). Animals: adult male Sprague-Dawley rats (Harlan Scandinavia, Alleroed, Denmark). The experiments was performed according to the Ethical Guidelines of the International Association for the Study of Pain (Zimmermann, 1983) and the Danish Committee for Experiments on Animals. […] MED and ED50 values were calculated where possible. Data (mean+/−SEM) were analyzed using one way ANOVA followed by Bonferonni's t test. […]

In test [2] the test system is dopamine (DA) reuptake in synaptosomes. Description: DA reuptake inhibition in synaptosomes. As to conditions: 3H-DA, read-out: DA-uptake IC50.
From the text: as §1

In test [3] the test system is serotonine (5-HT) reuptake in synaptosomes. Description: 5-HT reuptake inhibition in synaptosomes. The following applies: 3H-5-HT, read-out: 5-HT-uptake IC50.
From the text: as §1

`CCc1cc2ccc(O[C@@H]3C[C@H]4CC[C@@H](C3)N4)cc2oc1=O` [Compound 1.1, exo-7-[(8-Aza-bicyclo[3.2.1]oct-3-yl)oxy]-3-ethyl-chromen-2-one hydrochloride]: the figures for the IC50 in test [1], in test [2] and in test [3] were 47 nM, 500 nM and 7.8 nM, respectively.
